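Each compound was tested at five concentrations against cells in 96-well plates for 48 hours. At the TGI there is no net growth.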
Key:
Test in all cases: NCI anticancer screen, dose series, 48 h
OVCAR-3 ovarian = system: OVCAR-3 ovarian
CAKI-1 renal = system: CAKI-1 renal
SK-MEL-2 melanoma = system: SK-MEL-2 melanoma
MCF7 breast = system: MCF7 breast
KM12 colon = system: KM12 colon
BT-549 breast = system: BT-549 breast
UACC-257 melanoma = system: UACC-257 melanoma
NCI/ADR-RES ovarian = system: NCI/ADR-RES ovarian
SNB-19 CNS = system: SNB-19 CNS
SK-MEL-28 melanoma = system: SK-MEL-28 melanoma
HS 578T breast = system: HS 578T breast
HOP-62 NSCLC = system: HOP-62 NSCLC
UO-31 renal = system: UO-31 renal
CCRF-CEM leukemia = system: CCRF-CEM leukemia
SF-539 CNS = system: SF-539 CNS
HT29 colon = system: HT29 colon
IGROV1 ovarian = system: IGROV1 ovarian
MDA-MB-435 = system: MDA-MB-435
HCT-15 colon = system: HCT-15 colon
K-562 leukemia = system: K-562 leukemia
SN12C renal = system: SN12C renal
OVCAR-8 ovarian = system: OVCAR-8 ovarian
ACHN renal = system: ACHN renal
NCI-H23 lung = system: NCI-H23 lung
SK-OV-3 ovarian = system: SK-OV-3 ovarian
NCI-H522 lung = system: NCI-H522 lung
SR leukemia = system: SR leukemia
HCC-2998 colon = system: HCC-2998 colon
SW-620 colon = system: SW-620 colon
OVCAR-5 ovarian = system: OVCAR-5 ovarian
NCI-H460 lung = system: NCI-H460 lung
RXF 393 renal = system: RXF 393 renal
SNB-75 CNS = system: SNB-75 CNS
COLO 205 colon = system: COLO 205 colon
UACC-62 melanoma = system: UACC-62 melanoma
U251 CNS = system: U251 CNS
LOX IMVI melanoma = system: LOX IMVI melanoma
EKVX NSCLC = system: EKVX NSCLC
SK-MEL-5 melanoma = system: SK-MEL-5 melanoma
PC-3 prostate = system: PC-3 prostate
SF-295 CNS = system: SF-295 CNS
HCT-116 colon = system: HCT-116 colon
MDA-MB-231 breast = system: MDA-MB-231 breast
A549 NSCLC = system: A549 NSCLC
786-0 renal = system: 786-0 renal
OVCAR-4 ovarian = system: OVCAR-4 ovarian
TK-10 renal = system: TK-10 renal
MOLT-4 leukemia = system: MOLT-4 leukemia
SF-268 CNS = system: SF-268 CNS
NCI-H226 lung = system: NCI-H226 lung
M14 melanoma = system: M14 melanoma
RPMI-8226 leukemia = system: RPMI-8226 leukemia
DU-145 prostate = system: DU-145 prostate
A498 renal = system: A498 renal
MALME-3M melanoma = system: MALME-3M melanoma
HL-60(TB) leukemia = system: HL-60(TB) leukemia

## CC1(C)N([O-])[N+](=O)C1(C)Br (stereo unspecified)
OVCAR-3 ovarian
  TGI: > 100 µM
CAKI-1 renal
  TGI: > 100 µM
SK-MEL-2 melanoma
  TGI: > 100 µM
MCF7 breast
  TGI: > 100 µM
KM12 colon
  TGI: > 100 µM
BT-549 breast
  TGI: > 100 µM
UACC-257 melanoma
  TGI: > 100 µM
NCI/ADR-RES ovarian
  TGI: > 100 µM
SNB-19 CNS
  TGI: > 100 µM
SK-MEL-28 melanoma
  TGI: > 100 µM
HS 578T breast
  TGI: > 100 µM
HOP-62 NSCLC
  TGI: > 100 µM
UO-31 renal
  TGI: > 100 µM
CCRF-CEM leukemia
  TGI: > 100 µM
SF-539 CNS
  TGI: > 100 µM
HT29 colon
  TGI: > 100 µM
IGROV1 ovarian
  TGI: > 100 µM
MDA-MB-435
  TGI: > 100 µM
HCT-15 colon
  TGI: > 100 µM
K-562 leukemia
  TGI: > 100 µM
SN12C renal
  TGI: > 100 µM
OVCAR-8 ovarian
  TGI: > 100 µM
ACHN renal
  TGI: > 100 µM
NCI-H23 lung
  TGI: > 100 µM
SK-OV-3 ovarian
  TGI: > 100 µM
NCI-H522 lung
  TGI: > 100 µM
SR leukemia
  TGI: > 100 µM
HCC-2998 colon
  TGI: > 100 µM
SW-620 colon
  TGI: > 100 µM
OVCAR-5 ovarian
  TGI: > 100 µM
NCI-H460 lung
  TGI: > 100 µM
RXF 393 renal
  TGI: > 100 µM
SNB-75 CNS
  TGI: > 100 µM
COLO 205 colon
  TGI: > 100 µM
UACC-62 melanoma
  TGI: > 100 µM
U251 CNS
  TGI: > 100 µM
LOX IMVI melanoma
  TGI: > 100 µM
EKVX NSCLC
  TGI: > 100 µM
SK-MEL-5 melanoma
  TGI: > 100 µM
PC-3 prostate
  TGI: > 100 µM
SF-295 CNS
  TGI: > 100 µM
HCT-116 colon
  TGI: > 100 µM
MDA-MB-231 breast
  TGI: > 100 µM
A549 NSCLC
  TGI: > 100 µM
786-0 renal
  TGI: > 100 µM
OVCAR-4 ovarian
  TGI: > 100 µM
TK-10 renal
  TGI: > 100 µM
MOLT-4 leukemia
  TGI: > 100 µM
SF-268 CNS
  TGI: > 100 µM
NCI-H226 lung
  TGI: > 100 µM
M14 melanoma
  TGI: > 100 µM

## CCN(CC)c1ccc2cc(C(=O)Nc3ccccc3OC)c(=N)oc2c1
OVCAR-3 ovarian
  TGI: > 100 µM
RPMI-8226 leukemia
  TGI: 88.7 µM
DU-145 prostate
  TGI: > 100 µM
CAKI-1 renal
  TGI: 72.1 µM
SK-MEL-2 melanoma
  TGI: > 100 µM
MCF7 breast
  TGI: > 100 µM
KM12 colon
  TGI: > 100 µM
BT-549 breast
  TGI: 74.5 µM
UACC-257 melanoma
  TGI: > 100 µM
NCI/ADR-RES ovarian
  TGI: 90.8 µM
SNB-19 CNS
  TGI: > 100 µM
SK-MEL-28 melanoma
  TGI: > 100 µM
HS 578T breast
  TGI: 98.4 µM
HOP-62 NSCLC
  TGI: > 100 µM
UO-31 renal
  TGI: 1.58 µM
CCRF-CEM leukemia
  TGI: 20.8 µM
SF-539 CNS
  TGI: > 100 µM
HT29 colon
  TGI: > 100 µM
IGROV1 ovarian
  TGI: 35.3 µM
MDA-MB-435
  TGI: > 100 µM
HCT-15 colon
  TGI: 88.3 µM
K-562 leukemia
  TGI: > 100 µM
OVCAR-8 ovarian
  TGI: 23 µM
ACHN renal
  TGI: > 100 µM
A498 renal
  TGI: > 100 µM
NCI-H23 lung
  TGI: 89.8 µM
SK-OV-3 ovarian
  TGI: > 100 µM
NCI-H522 lung
  TGI: 65.6 µM
SR leukemia
  TGI: > 100 µM
HCC-2998 colon
  TGI: > 100 µM
SW-620 colon
  TGI: > 100 µM
OVCAR-5 ovarian
  TGI: > 100 µM
NCI-H460 lung
  TGI: > 100 µM
COLO 205 colon
  TGI: > 100 µM
UACC-62 melanoma
  TGI: > 100 µM
U251 CNS
  TGI: > 100 µM
LOX IMVI melanoma
  TGI: 58.2 µM
EKVX NSCLC
  TGI: > 100 µM
SK-MEL-5 melanoma
  TGI: > 100 µM
PC-3 prostate
  TGI: 59.6 µM
MALME-3M melanoma
  TGI: > 100 µM
SF-295 CNS
  TGI: > 100 µM
HCT-116 colon
  TGI: > 100 µM
A549 NSCLC
  TGI: > 100 µM
786-0 renal
  TGI: > 100 µM
OVCAR-4 ovarian
  TGI: > 100 µM
MOLT-4 leukemia
  TGI: 17.2 µM
SF-268 CNS
  TGI: > 100 µM
HL-60(TB) leukemia
  TGI: 31.6 µM
M14 melanoma
  TGI: > 100 µM

Reference: PubChem BioAssay (NCI)
